# Target: T1, GRK6, recombinant full-length GST-tagged human protein (Homo sapiens, UniProt P43250)
# T1 construct: Enzyme: 20 nM GRK6, recombinant full-length GST-tagged human protein; GST
# Assay: GRK6 assay, IC50 determination (8-point concentration-response)
# Format: biochemical
# Settings: Series 1 (Table 11); 20 nM GRK6, ATP 12 μM (Km), Peptide 216 1 μM, incubation 7 h
# Procedure: The following assay conditions were used.
# Buffer: 50 mM TRIS-HCl, pH 7.5, 5 mM MgCl2, 2 mM DTT, 0.01% Triton X-100, 10 μM Na3VO4, 10 μM b-GP, 1% DMSO
# Enzyme: 20 nM GRK6, recombinant full-length GST-tagged human protein
# Peptide substrate (Peptide 216): 1 μM
# One hundred two compounds (1-1-1-102) were further characterized by determining IC50 values in a GRK6 assay. This screen has been previously described in WO 2013/063458, which is incorporated by reference in its entirety herein. Briefly, the following activities were performed: 8-point concentration-response determinations in singlicate wells (top concentration=60 μM, 3-fold dilution steps); Repeat tests for QC failed or inconclusive compounds; and Repeat tests (titrate down) for compounds with >50% inhibition at all tested concentrations.
# Twelve compounds (2-1-2-12) were further characterized by determining the IC50 values in a GRK6 assay. This screen has been previously described in WO 2013/063458, which is incorporated by reference in its entirety herein. Specific activities were performed as described above (Example 18).
# Thirty-six compounds (3-1-3-36) were further characterized by determining the IC50 values in a GRK6 assay. This screen has been previously described in WO 2013/063458, which is incorporated by reference in its entirety herein. Specific activities were performed as described above (Example 18).
# Fifty-four compounds (4-1-4-54) were further characterized by determining the IC50 values in a GRK6 assay. This screen has been previously described in WO 2013/063458, which is incorporated by reference in its entirety herein. Specific activities were performed as described above (Example 18).
# T1 sequence (P43250 whole entry): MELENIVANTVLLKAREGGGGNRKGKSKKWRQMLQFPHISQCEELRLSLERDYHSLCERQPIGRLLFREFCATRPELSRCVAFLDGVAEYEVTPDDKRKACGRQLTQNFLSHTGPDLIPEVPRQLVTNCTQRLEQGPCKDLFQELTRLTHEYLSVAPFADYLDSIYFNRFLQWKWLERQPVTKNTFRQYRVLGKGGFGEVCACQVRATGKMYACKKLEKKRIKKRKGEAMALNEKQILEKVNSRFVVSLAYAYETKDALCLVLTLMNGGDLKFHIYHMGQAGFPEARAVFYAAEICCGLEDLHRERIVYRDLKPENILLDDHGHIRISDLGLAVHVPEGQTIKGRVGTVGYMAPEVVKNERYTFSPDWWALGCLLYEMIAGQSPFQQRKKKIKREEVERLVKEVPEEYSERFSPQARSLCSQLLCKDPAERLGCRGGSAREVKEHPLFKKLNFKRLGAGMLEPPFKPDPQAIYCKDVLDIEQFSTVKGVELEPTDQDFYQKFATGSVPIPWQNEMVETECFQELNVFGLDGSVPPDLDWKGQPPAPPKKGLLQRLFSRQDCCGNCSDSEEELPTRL
row,IC50,SMILES
1,458 nM,O=C(O)CSc1nnc(-c2ccc(-c3cccc(OCc4ccc5ccccc5c4)c3)o2)[nH]1 [Compound 1-48]
2,813 nM,O=C(O)CSc1nnc(-c2ccc(-c3ccc(Br)cc3)o2)[nH]1 [Compound 1-68]
3,245 nM,COc1ccc(-c2ccc(-c3nnc(SCC(=O)O)[nH]3)o2)cc1C=O [Compound 1-17]
4,392 nM,Cc1cc(-c2ccc(-c3nnc(SCC(=O)O)[nH]3)o2)ccc1Cl [Compound 1-42]
5,1150 nM,COc1ccc2cc(-c3oc(-c4nnc(SCC(=O)O)[nH]4)cc3-c3ccccc3)ccc2c1 [Compound 1-77]
6,311 nM,O=C(O)CSc1nnc(-c2ccc(-c3cc(Cl)ccc3F)o2)[nH]1 [Compound 1-28]
7,473 nM,O=C(O)CSc1nnc(-c2ccc(-c3ccc(Cl)cc3)o2)[nH]1 [Compound 1-50]
8,359 nM,Cc1ccc(-c2ccc(-c3nnc(SCC(=O)O)[nH]3)o2)cc1Cl [Compound 1-37]
9,315 nM,"O=C(O)CSc1nnc(-c2ccc(-c3ccc4ncccc4c3)o2)[nH]1 [Compound 1-30, 2-((3-(5-(quinolin-6-yl)furan-2-yl)-1H-1,2,4-triazol-5-yl)thio)acetic acid]"
10,332 nM,N#Cc1c[nH]c2cc(-c3ccc(-c4nnc(SCC(=O)O)[nH]4)o3)ccc12 [Compound 1-33]
11,285 nM,O=C(O)CSc1nnc(-c2ccc(-c3ccc4sccc4c3)o2)[nH]1 [Compound 1-26]
12,699 nM,"Cn1ncc2ccc(-c3ccc(-c4nnc(SCC(=O)O)[nH]4)o3)cc21 [Compound 1-63, 2-((5-(5-(1-methyl-1H-indazol-6-yl)furan-2-yl)-4H-1,2,4-triazol-3-yl)thio)acetic acid]"
13,265 nM,O=C(O)CSc1nnc(-c2ccc(-c3cccc(OC(F)(F)F)c3)o2)[nH]1 [Compound 1-21]
14,250 nM,N#Cc1ccc2[nH]c(-c3ccc(-c4nnc(SCC(=O)O)[nH]4)o3)cc2c1 [Compound 1-18]
15,162 nM,N#Cc1cccc(COc2cccc(-c3ccc(-c4nnc(SCC(=O)O)[nH]4)o3)c2)c1 [Compound 1-6]
16,608 nM,O=C(O)CSc1nnc(-c2ccc(-c3cc4cc(F)ccc4[nH]3)o2)[nH]1 [Compound 1-57]
17,1020 nM,CCOC(=O)c1ccc(-c2ccc(-c3nnc(SCC(=O)O)[nH]3)o2)cc1 [Compound 1-74]
18,860 nM,O=C(O)CSc1nnc(-c2ccc(-c3cccc4[nH]ccc34)o2)[nH]1 [Compound 1-70]
19,1570 nM,O=C(O)CSc1nnc(-c2cc3ccccc3o2)[nH]1 [Compound 1-86]
20,2300 nM,C#Cc1ccc(-c2nnc(SCC(=O)O)[nH]2)o1 [Compound 1-93]
21,189 nM,Cn1c2ccccc2c2ccc(-c3ccc(-c4nnc(SCC(=O)O)[nH]4)o3)cc21 [Compound 1-12]
22,309 nM,CCCOc1ccc(-c2ccc(-c3nnc(SCC(=O)O)[nH]3)o2)cc1Cl [Compound 1-27]
23,259 nM,"O=C(O)CSc1nnc(-c2ccc(C#Cc3ccc4ccccc4c3)o2)[nH]1 [Compound 1-19, 2-((5-(5-(naphthalen-2-ylethynyl)furan-2-yl)-4H-1,2,4-triazol-3-yl)thio)acetic acid]"
24,737 nM,CC(C)Oc1cccc(-c2ccc(-c3nnc(SCC(=O)O)[nH]3)o2)c1 [Compound 1-67]
25,1050 nM,O=C(O)CSc1nnc(-c2ccc(-c3ccc(C(=O)NC4CC4)cc3)o2)[nH]1 [Compound 1-75]
26,187 nM,COc1ccc2cc(C#Cc3ccc(-c4nnc(SCC(=O)O)[nH]4)o3)ccc2c1 [Compound 1-11]

# Same assay, conditions: Series 2 (Table 12); conditions as Example 18
row,IC50,SMILES
1,1250 nM,Cn1c2ccccc2c2ccc(-c3ccc(-c4cc(SCC(=O)O)n[nH]4)o3)cc21 [Compound 2-8]
2,309 nM,COc1cc(Cl)cc(-c2ccc(-c3cc(SCC(=O)O)n[nH]3)o2)c1 [Compound 2-1]
3,1470 nM,COc1ccc2cc(-c3cc(SCC(=O)O)n[nH]3)ccc2c1 [Compound 2-10]
4,5440 nM,O=C(O)CSc1cc(-c2ccc(Br)o2)[nH]n1 [Compound 2-11]
5,475 nM,O=C(O)CSc1cc(-c2ccc(-c3ccc(Cl)c(Cl)c3)o2)[nH]n1 [Compound 2-3]
6,721 nM,COc1ccc2cc(-c3ccc(-c4cc(SCC(=O)O)n[nH]4)s3)ccc2c1 [Compound 2-6]

# Same assay, conditions: Series 3 (Table 13); conditions as Example 18
row,IC50,SMILES
1,900 nM,c1ccc(-c2cccc(-c3ccc(-c4nnc(SCc5nnn[nH]5)[nH]4)o3)c2)cc1 [Compound 3-5]
2,1100 nM,c1ccc2ncc(-c3ccc(-c4nnc(SCc5nnn[nH]5)[nH]4)o3)cc2c1 [Compound 3-6]
3,2480 nM,CC(=O)c1cccc(-c2ccc(-c3nnc(SCc4nnn[nH]4)[nH]3)o2)c1 [Compound 3-15]
4,2550 nM,FC(F)(F)c1cccc(-c2ccc(-c3nnc(SCc4nnn[nH]4)[nH]3)o2)c1 [Compound 3-16]
5,1270 nM,c1cc2cc(-c3ccc(-c4nnc(SCc5nnn[nH]5)[nH]4)o3)ccc2[nH]1 [Compound 3-8]
6,3570 nM,FC(F)(F)c1cc(-c2ccc(-c3nnc(SCc4nnn[nH]4)[nH]3)o2)ccc1Cl [Compound 3-19]
7,1280 nM,COc1ccc(C(F)(F)F)cc1-c1ccc(-c2nnc(SCc3nnn[nH]3)[nH]2)o1 [Compound 3-9]
8,442 nM,c1ccc2cc(-c3ccc(-c4nnc(SCc5nnn[nH]5)[nH]4)o3)ccc2c1 [Compound 3-1]
9,3710 nM,CS(=O)(=O)Nc1ccc(-c2ccc(-c3nnc(SCc4nnn[nH]4)[nH]3)o2)cc1 [Compound 3-21]
10,1530 nM,COc1ccc2cc(-c3ccc(-c4nnc(SCc5nnn[nH]5)[nH]4)o3)ccc2c1 [Compound 3-11]

# Same assay, conditions: Series 4 (Table 14); conditions as Example 18
row,IC50,SMILES
1,35300 nM,O=C(O)CSc1nnc(-c2ccc(Cl)cn2)[nH]1 [Compound 4-33]
2,5700 nM,Cn1ncc(-c2nnc(SCC(=O)O)[nH]2)c1-c1ccccc1 [Compound 4-14]
3,7100 nM,CN(C)c1ncc(-c2nnc(SCC(=O)O)[nH]2)cn1 [Compound 4-17]
4,> 100000 nM,O=C(O)CSc1nnc(-c2cccnc2N2CCOCC2)[nH]1 [Compound 4-41]
5,7410 nM,Cn1nc(C(F)(F)F)cc1-c1ccc(-c2nnc(SCC(=O)O)[nH]2)s1 [Compound 4-18]
6,1010 nM,O=C(O)CSc1nnc(-c2cnn(-c3ccccc3)c2)[nH]1 [Compound 4-3]
7,95400 nM,Cc1c(-c2nnc(SCC(=O)O)[nH]2)cnn1C [Compound 4-38]
8,> 80000 nM,Cc1nc(-c2nnc(SCC(=O)O)[nH]2)c2ccccn12 [Compound 4-46]
9,11300 nM,O=C(O)CSc1nnc(-c2ccc(N3CCOCC3)nc2)[nH]1 [Compound 4-22]
10,13000 nM,O=C(O)CSc1nnc(-c2ccc3ccccc3n2)[nH]1 [Compound 4-25]
11,78700 nM,O=C(O)CSc1nnc(-c2ccc(F)cn2)[nH]1 [Compound 4-35]
12,> 100000 nM,O=C(O)CSc1nnc(-c2c[nH]c3ccccc23)[nH]1 [Compound 4-49]
13,2580 nM,O=C(O)CSc1nnc(-c2cc3ccccc3s2)[nH]1 [Compound 4-8]
14,> 100000 nM,O=C(O)CSc1nnc(-c2cccn2S(=O)(=O)c2ccccc2)[nH]1 [Compound 4-44]
15,780 nM,O=C(O)CSc1nnc(-c2cnc3cc(OCc4ccccc4)ccc3c2)[nH]1 [Compound 4-2]
16,27300 nM,Cc1csc2sc(-c3nnc(SCC(=O)O)[nH]3)c(C)c12 [Compound 4-29]
17,8960 nM,CCc1n[nH]cc1-c1nnc(SCC(=O)O)[nH]1 [Compound 4-19]
18,4640 nM,Nc1ncc(-c2nnc(SCC(=O)O)[nH]2)s1 [Compound 4-13]
